Source: patent US9464086B2, “Crystalline forms of N,N-dicyclopropyl-4-(1,5-dimethyl-1 H-pyrazol-3-ylamino)-6-ethyl-1-methyl-1,6-dihydroimidazo[4,5-D]pyrrolo[2,3-B]pyridine-7-carboxamide for the treatment of myeloproliferative disorders” (BRISTOL-MYERS SQUIBB COMPANY, priority 2013, dated 2016)

Legend:
Type in all cases: physicochemical
[1] = Stability on exposure to UV/HIL; conditions: solid form; 4 days
From the text: (§1) As previously noted, the N-2 form was selected due to a number of properties including chemical/physical stability, reproducibility and hygroscopicity.

[2] = Stability of milled API under high humidity and temperature open dish conditions; conditions: up to 2 weeks, 25° C./60% RH and 40° C./75% RH open
From the text: as §1

[3] = Stability of the crystalline form under accelerated conditions of temperature and humidity; conditions: solid form; up to 4 weeks
From the text: as §1

stability on exposure to UV/HIL [1]: stable
stability under high humidity and temperature open dish conditions [2]: stable
stability under accelerated conditions of temperature and humidity [3]: stable
Structure (SMILES): CCn1c(C(=O)N(C2CC2)C2CC2)cc2c3c(ncn3C)c(Nc3cc(C)n(C)n3)nc21 [Form N-2, N,N-dicyclopropyl-4-(1,5-dimethyl-1H-pyrazol-3-ylamino)-6-ethyl-1-methyl-1,6-dihydroimidazo[4,5-d]pyrrolo[2,3-b]pyridine-7-carboxamide]
